In US20230089273A1, “METHODS FOR MATURING AN ARTERIOVENOUS FISTULA” (ALUCENT BIOMEDICAL, INC., priority 2020, published 2023):

Experiments:
IL-6 = assay: Immunohistochemistry of the AVF: IL-6; type: in vivo, rat; settings: 4 weeks
Source text: (§1) Based on the results from the morphometric analysis in Example 1, the expression level of several molecular targets associated with AVF maturation failure (i.e., MMP2-MMP-9, Ki-67, and IL6) in the AVF vessels at the 4-week time point were selected for further investigation.
(§2) But excessive fibrosis of the vessel walls due to local inflammation as well as the circumferential arrangement of newly synthesized collagen fibers has shown a positive association with AVF non-maturation (possibly due to decreasing the distensibility of the veins as they go through the arterialization process). MMP-9 is an inflammatory marker, and although MM-2 is usually not considered an inflammatory marker, both metalloproteinases have nearly identical ECM substrates and are important in vascular remodeling. […] Ki-67 is a marker of cell proliferation, which allows assessing the proliferation of vascular wall cells during the AVF development process.

[1] = system: Femoral AVFs in young Wistar male rats; assay: Rat femoral AVF model, histology and morphometry (VVG); type: in vivo
Protocol: (§3) Femoral AVFs were created in young Wistar male rats by connecting the femoral artery (side) and femoral vein (end) in the same limb. FIGS. 1A-B show the surgical procedure. Immediately after the blood flow was restored and dilatation of the femoral vein occurred, a 10 μl -drop of a composition comprising 2 mg/ml Compound of Formula (I) in PBS was placed at the AVF perivascularly and incubated for 5 minutes, to allow the Compound of Formula (I) to diffuse into the vascular wall. The Compound of Formula (I) was activated by a 1 minute illumination by 450 nm light. A control group of young Wistar male rats received a 10 μl -drop of phosphate buffered saline and the same light activation. The rats' skin was closed immediately after light activation. FIG. 1C is a photograph of the incubation with NVS, applied perivascularly on the anastomosis to allow the compound to diffuse into the vascular tissue. FIG. 1D is a photograph of the small molecule treated area being exposed to 1 minute of illumination with a 450 -nm light source. FIG. 1E depicts fluorescence images after following light activation, 2 animals were sacrificed and their vessels observed on a fluorescence microscope at 450 nm excitation for NVS.
Rats were euthanized 1 week (early time point, 4 per group) and 4 weeks (later time point, 10 per group) post-AVF creation for histology and morphometry. Verhoeff-Van Gieson (VVG)-stained thin cross-sections were used to measure the area enclosed by internal elastic lamina (IEL), the area of open lumen, and the area of neointimal hyperplasia (NH) by Image J software. Percent open lumen area=open lumen area/IEL-enclosed area×100%. These analyses were done at three locations: the entire AVF, the AVF venous limb, and the AVF arterial limb.
An unpaired, two-tailed t-test was used to determine the statistical significance between the two treatment groups (no-NVS (i.e., control) vs. NVS (treatment with Compound of Formula (I))) in each of the data sets, with α=0.05.

MMP-9 = assay: Immunohistochemistry of the AVF: MMP-9; type: in vivo, rat; settings: 4 weeks
Source text: as §1, §2

MMP-2 = assay: Immunohistochemistry of the AVF: MMP-2; type: in vivo, rat; settings: 4 weeks
Source text: as §1, §2

[2] = system: collagen fibers in AVF medial layer; assay: Multiphoton / SHG imaging of collagen fibers in AVF; type: in vivo, rat
Protocol: Second harmonic generation (SHG) imaging was performed on 5 μm thick formalin-fixed paraffin embedded (FFPE) sections using Leica SP8 Dive with spectral tunable detection. Collagen fiber orientation in the medial layer was analyzed in relationship to the lumen. Each sample was divided into 4 quadrants and the medial layer was examined in each quadrant; the area of examination for each quadrant was 25 μm^2. The same images were used for other collagen morphology using the MIPAR image software analysis.

HUVECs = assay: Cell death (apoptosis) assay, R&D system kit, HUVEC; type: cell-based; settings: 0.25, 2.5, 25 μg/ml, 5 min, 450 nm light 1 min, D0-D3, FIG. 12A
Protocol: (§4) Cell death assays used the cell death detection R&D system kit to detect cell death via apoptosis. Cell density was 1×10^5 per well in a 96-well plate for R&D system kit. HUVECs and HASMCs were treated with NVS in different concentrations (0, 0.25, 2.5, and 25 μg/ml) in serum free medium for 5 minutes in the incubator. After removing NVS, cells were washed with serum free medium once, and the plate was refilled with 200 μl serum free medium in each well. Cells were treated using 450 nm light for 1 minute at room temperature, and then serum free medium was removed and each well was refilled with 200 μl of medium supplemented with 10% serum. At 0, 1, 2, and 3 days post-treatment (D0, D1, D2, and D3), cell death assay was performed according to the manufacturer's protocol. Positive controls were cells incubated with hypertonic buffer (10 mM Tris PH 7.4, 400 mM NaCl, 10 mM MgCl2) at 37° C. for 2 hours.

[3] = system: native blood vessels, anastomosis area; assay: Fluorescence imaging of vessels after NVS and laser treatment; type: in vivo, rat; settings: vessels harvested immediately after NVS and laser treatment, FIG. 1E
Protocol: as §3, with “FIGS. 1C-E show photographs of the surgical procedure described in Example 1. (C) AVF surgery area was incubated with NVS solution for 5 min; (D) NVS was activated by laser at 450 nm for 1 min; (E) Fluorescent images of native blood vessels that are harvested immediately after the NVS and laser treatment. […] Femoral” for “Femoral”, “FIG. 1D is a photograph of the small molecule treated area being exposed to 1 minute of illumination with a 450 -nm light source.” left out

Ki-67 = assay: Immunohistochemistry of the AVF: Ki-67; type: in vivo, rat; settings: entire AVF, 4 weeks
Source text: as §1, §2

HASMCs = assay: Cell death (apoptosis) assay, R&D system kit, HASMC; type: cell-based; settings: 0.25, 2.5, 25 μg/ml, 5 min, 450 nm light 1 min, D0-D3, FIG. 12B
Protocol: as §4

[4] = week 4, trend, not statistically different

## NCCOCCOCCNc1ccc2c3c(cccc13)C(=O)N(CCOCCOCCN1C(=O)c3cccc4c(NCCOCCOCCN)ccc(c34)C1=O)C2=O [NVS, 2,2′-((ethane-1,2-diylbis(oxy))bis(ethane-2,1-diyl))bis(6-((2-(2-(2-aminoethoxy)ethoxy)ethyl)amino)-1H-benzo[de]isoquinoline-1,3(2H)-dione)]
IL-6; arterial limb, p=0.015, FIG. 10C
  IL-6 mean gray value, fold lower than PBS group: 1.6 fold
IL-6; entire AVF, p=0.027, FIG. 10C
  IL-6 mean gray value, fold lower than PBS group: 1.4 fold
IL-6; venous limb
  IL-6 expression level vs PBS group: trending lower
[1]; 4 weeks, p=0.009, FIG. 6
  AVF venous limb % open lumen area, fold larger than control: 1.98 fold
[1]; 4 weeks, p=0.014, FIG. 6
  AVF venous limb open lumen area, fold larger than control: 4.18 fold
[1]; 4 weeks, p=0.052, FIG. 5
  entire AVF % open lumen area, fold larger than control: 1.49 fold
[1]; 4 weeks, p=0.062, FIG. 5
  entire AVF open lumen area, fold larger than control: 2.25 fold
[1]; 10 μl drop of 2 mg/ml in PBS perivascular, 5 min, 450 nm light 1 min
  tolerability of treatment: tolerated the treatment well
[1]; by 4 weeks after AVF creation surgery
  venous diameter vs PBS control: enlarged venous diameter
[1]; entire AVF, 1 week
  all four morphometric parameters (IEL-enclosed area, neointimal lesion area, open lumen area, % area of open lumen) vs PBS: similar
[1]; regardless of the locations
  NH (neointimal hyperplasia) area vs control: without significantly affecting
[1]; summary statement
  AVF open lumen area, effect of treatment: significantly increased
MMP-9; arterial limb, p=0.036, FIG. 9D
  MMP-9 % area stained positive, fold lower than PBS group: 2.4 fold
MMP-9; entire AVF
  MMP-9 expression level vs PBS group: trending lower
MMP-9; venous limb, p=0.019, FIG. 9D
  MMP-9 % area stained positive, fold lower than PBS group: 1.8 fold
MMP-2; arterial limb
  MMP-2 expression level vs PBS group: trending lower
MMP-2; entire AVF
  MMP-2 expression level vs PBS group: trending lower
MMP-2; venous limb, p=0.015, FIG. 8C
  MMP-2 area stained positive, fold lower than PBS group: 1.8 fold
[2]; AVFs at week 4, not statistically significant vs PBS (25%)
  analyzed regions exhibiting favorable collagen orientation for AVF maturation: 58%
[2]; [4]
  collagen shape features (roundness, roughness, eccentricity) vs PBS treated samples: more defined shape features
  overall collagen area vs PBS treated samples: less overall collagen area
HUVECs
  cell death via apoptosis: minimal cell death
[3]
  penetration into vascular tissue (green fluorescence): penetration throughout the anastomosis area
Ki-67
  Ki-67 expression level vs PBS group: similar
HASMCs
  cell death via apoptosis: minimal cell death
